# “And” between values parts separate entries of the source, which are not always exact repeats. Equal values may be shown once. Read-outs that look alike come from different tables or passages of the source.
# Legend:
# Format in all cases: biochemical
# PRDM7 = target: T1, PRDM7 (Homo sapiens, UniProt Q9NQW5); assay: PRDM7 methyltransferase activity assay (3H-SAM scintillation proximity assay)
# T1 sequence (Q9NQW5 1-492): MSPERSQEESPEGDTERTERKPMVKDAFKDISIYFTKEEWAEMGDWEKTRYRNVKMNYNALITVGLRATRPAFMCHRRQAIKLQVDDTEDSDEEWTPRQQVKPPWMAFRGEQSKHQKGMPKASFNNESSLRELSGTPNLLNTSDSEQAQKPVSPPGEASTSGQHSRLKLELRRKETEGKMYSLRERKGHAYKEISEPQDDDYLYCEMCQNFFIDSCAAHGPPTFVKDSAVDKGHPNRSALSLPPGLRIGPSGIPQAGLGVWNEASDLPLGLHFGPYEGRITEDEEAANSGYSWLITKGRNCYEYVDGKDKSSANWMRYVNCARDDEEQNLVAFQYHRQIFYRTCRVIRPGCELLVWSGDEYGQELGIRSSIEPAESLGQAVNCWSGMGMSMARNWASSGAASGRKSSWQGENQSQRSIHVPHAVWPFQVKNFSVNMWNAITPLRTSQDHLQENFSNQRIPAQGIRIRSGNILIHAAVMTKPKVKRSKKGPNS
# Experimental: Methyltransferase activity assays for PRDM9 (amino acids: 195–415) were performed by monitoring the incorporation of tritium-labeled methyl group from ^3H-SAM to H3 (1–25) peptide using scintillation proximity assay (SPA). The enzymatic reactions were performed at 23 °C with 30 min incubation in 20 mM Tris-HCl (pH 7.5), 5 mM DTT, 0.01% Triton X-100 and 1% DMSO containing 71 μM of SAM (5 μM of ^3H-SAM), 4 μM of biotinylated H3 (1–25) peptide and 5 nM of PRDM9. For PRDM7, reactions were performed at 23 °C with 90 min incubation in 20 mM BTP pH 9.0, 5 mM DTT, 0.01% Triton X-100 and 1% DMSO containing 900 μM of SAM (5 μM of ^3H-SAM), 4 μM of biotinylated H3 (1–25) peptide and 100 nM of enzyme. Compounds were titrated from 3 nM to 50 μM and from 200 nM to 200 μM for PRDM9 and PRDM7, respectively. To stop the reactions, 10 μL of 7.5 M guanidine hydrochloride was added to 10 μL of reaction mixture, followed by 60 μL of buffer (20 mM Tris, pH 8.0), mixed, and transferred to a 384-well streptavidin coated Flash-plate. After mixing, the mixtures in Flash-plate were incubated for 2 h, and the CPM counts were measured using TopCount plate reader. All enzymatic reactions were performed in triplicate, and IC50 values were determined by fitting the data to Four Parameter Logistic equation using the GraphPad Prism software.
# DNMT3A/3L = target: T2, DNMT3A/3L (Homo sapiens, UniProt Q9Y6K1); assay: Methyltransferase selectivity assay (filter-based)
# T2 construct: purchased Structural Genomics Consortium (SGC Toronto) in-house methyltransferase panel
# Experimental: (§1) Selectivity against methyltransferases were determined as described previously. Details of the assays are described in the supplementary methods.
# (§2) Methyltransferase selectivity assay1
# (§3) The effect of chemical probes and negative controls on the methyltransferase activities of protein, DNA and RNA methyltransferases was tested by radiometric assays using 3H-SAM. […]
# Briefly, a 10 µL reaction containing 3H- […]
# The CPM in the absence of compound or enzyme was defined as 100% activity and background (0%), respectively, for each dataset. […]
# (§4) For proteins which were tested with nucleosome as substrate such as DOT1L, NSD1, NSD2, NSD3, and ASH1L, or unbiotinylated Poly(2′-deoxyinosinic-2′-deoxycytidylic acid) (Cat# 81349-500UG, Sigma Aldrich) such as DNMT3A/3L, and DNMT3B/3L, a filter-based assay was used. In this assay, a trichloroacetic acid (TCA) protein precipitation protocol was employed. A 10 µL reaction mixture was incubated at 23°C for 1 h, followed by addition of 50 µL of 10% TCA. The mixture was transferred to filter plates (Millipore, Billerica, MA, USA) that were centrifuged at 2000 rpm (Allegra X-15R; Beckman Coulter, Brea, CA, USA) for 2 min. Samples were washed twice with 10% TCA and once with ethanol (180 µL), and centrifuged. After drying, 100 µL MicroScint-O (Perkin Elmer) was added to each well and the plates were centrifuged to remove the liquid. A 70 µL volume of MicroScint-O was added and the CPM was measured with a TopCount plate reader.
# DNMT3B/3L = target: T3, DNMT3B/3L (Homo sapiens, UniProt Q9UBC3); assay: Methyltransferase selectivity assay (filter-based); details: for activity at 1 µM: 1µM compound; for Activity % / activity at 10 µM: 10µM compound; for Activity %: Exp1, Exp2, 10 µM
# T3 construct: purchased Structural Genomics Consortium (SGC Toronto) in-house methyltransferase panel
# Experimental: as §1, §2, §3
# The counts per minute (CPM) was measured on a TopCount plate reader. The CPM in the absence of compound or enzyme was defined as 100% activity and background (0%), respectively, for each dataset. […]
# as §4
# [1] = 0.195312 µM compound, 0.195312 µM
# [2] = 0.195312 µM compound, read-out: PRDM7-Activity %, Average (n=3)
# [3] = 0.195312 µM compound, read-out: PRDM7-Activity %, single experiments
# [4] = 0.390625 µM compound, 0.390625 µM
# [5] = 0.390625 µM compound, read-out: PRDM7-Activity %, Average (n=3)
# [6] = 0.390625 µM compound, read-out: PRDM7-Activity %, single experiments
# [7] = 0.78125 µM compound, 0.78125 µM
# [8] = 0.78125 µM compound, read-out: PRDM7-Activity %, Average (n=3)
# [9] = 0.78125 µM compound, read-out: PRDM7-Activity %, single experiments
# [10] = 1.5625 µM compound, read-out: PRDM7-Activity %, Average (n=3)
# [11] = 1.5625 µM compound, read-out: PRDM7-Activity %, single experiments
# [12] = 3.125 µM compound, read-out: PRDM7-Activity %, Average (n=3)
# [13] = 3.125 µM compound, read-out: PRDM7-Activity %, single experiments
# [14] = 6.25 µM compound, read-out: PRDM7-Activity %, Average (n=3)
# [15] = 6.25 µM compound, read-out: PRDM7-Activity %, single experiments
# [16] = 12.5 µM compound, read-out: PRDM7-Activity %, Average (n=3)
# [17] = 12.5 µM compound, read-out: PRDM7-Activity %, single experiments
# [18] = 25 µM compound, read-out: PRDM7-Activity %, Average (n=3)
# [19] = 25 µM compound, read-out: PRDM7-Activity %, single experiments
# [20] = 50 µM compound, read-out: PRDM7-Activity %, Average (n=3)
# [21] = 50 µM compound, read-out: PRDM7-Activity %, single experiments
# [22] = 100 µM compound, read-out: PRDM7-Activity %, Average (n=3)
# [23] = 100 µM compound, read-out: PRDM7-Activity %, single experiments
# [24] = 200 µM compound, read-out: PRDM7-Activity %, Average (n=3)
# [25] = Exp1, Exp2, read-out: Activity %
Compound,"PRDM7-Activity %, single experiments (PRDM7; [1])",activity at 0.195312 µM (PRDM7; [2]) [%],activity at 0.195312 µM (PRDM7; [3]) [%],"PRDM7-Activity %, single experiments (PRDM7; [4])",activity at 0.390625 µM (PRDM7; [5]) [%],activity at 0.390625 µM (PRDM7; [6]) [%],"PRDM7-Activity %, single experiments (PRDM7; [7])",activity at 0.78125 µM (PRDM7; [8]) [%],activity at 0.78125 µM (PRDM7; [9]) [%],"PRDM7-Activity %, single experiments (PRDM7; 1.5625 µM compound, 1.5625 µM)",activity at 1.5625 µM (PRDM7; [10]) [%],activity at 1.5625 µM (PRDM7; [11]) [%],"PRDM7-Activity %, single experiments (PRDM7; 3.125 µM compound, 3.125 µM)",activity at 3.125 µM (PRDM7; [12]) [%],activity at 3.125 µM (PRDM7; [13]) [%],"PRDM7-Activity %, single experiments (PRDM7; 6.25 µM compound, 6.25 µM)",activity at 6.25 µM (PRDM7; [14]) [%],activity at 6.25 µM (PRDM7; [15]) [%],"PRDM7-Activity %, single experiments (PRDM7; 12.5 µM compound, 12.5 µM)",activity at 12.5 µM (PRDM7; [16]) [%],also measured
COc1cc(OC)cc(-c2noc(N3CCN(C)C4(CCN(c5ccccc5)CC4)C3)n2)c1 [MRK-740-NC],100.2% and 97.4%,99.4,101,100.3% and 102.2%,102,104,94.78% and 94.12%,92.2,87.6,107.5% and 100.6%,102,98.2,102.8% and 99.77%,97.8,90.9,83.67% and 87.1%,90.6,101,102.7% and 91.72%,94.2,"PRDM7 inhibition (in words) (PRDM7): no significant PRDM7 inhibition; activity at 12.5 µM (PRDM7; [17]): 88.2%; PRDM7-Activity %, single experiments (PRDM7; 25 µM compound, 25 µM): 99.4% and 100.5%; activity at 25 µM (PRDM7; [18]): 101%; activity at 25 µM (PRDM7; [19]): 105%; PRDM7-Activity %, single experiments (PRDM7; 50 µM compound, 50 µM): 93.21% and 92.53%; activity at 50 µM (PRDM7; [20]): 93%; activity at 50 µM (PRDM7; [21]): 93.3%; PRDM7-Activity %, single experiments (PRDM7; 100 µM compound, 100 µM): 98.05% and 87.79%; activity at 100 µM (PRDM7; [22]): 89.8%; activity at 100 µM (PRDM7; [23]): 83.5%; PRDM7-Activity %, single experiments (PRDM7; 200 µM compound, 200 µM): 98.85% and 73.14% and 89.14%; activity at 200 µM (PRDM7; [24]): 87%"
COc1cc(OC)cc(-c2noc(N3CCN(C)C4(CCN(c5ccnc(C)c5)CC4)C3)n2)c1 [MRK-740],104.6% and 100.9%,103,104,104.3% and 107.1%,105,103,95.5% and 104.5%,99.4,98.3,97.86% and 90.81%,94.9,96.1,99.32% and 89.67%,95.4,97.1,81.54% and 82.05%,81.6,81.2,70.89% and 77.38%,74.1,"activity at 12.5 µM (PRDM7; [17]): 74%; PRDM7-Activity %, single experiments (PRDM7; 25 µM compound, 25 µM): 64.86% and 73.52%; activity at 25 µM (PRDM7; [18]): 69.3%; activity at 25 µM (PRDM7; [19]): 69.4%; activity at 50 µM (PRDM7; [20]): 46.3%; activity at 50 µM (PRDM7; [21]): 47.1%; PRDM7-Activity %, single experiments (PRDM7; 100 µM compound, 100 µM): 28% and 33.38%; activity at 100 µM (PRDM7; [22]): 30%; activity at 100 µM (PRDM7; [23]): 28.6%; PRDM7-Activity %, single experiments (PRDM7; 200 µM compound, 200 µM): 12.96% and 18.48%; activity at 200 µM (PRDM7; [24]): 15.8%; activity at 200 µM (PRDM7; 200 µM compound, read-out: PRDM7-Activity %, single experiments): 16.1%; IC50 (PRDM7; biotinylated H3 (1–25) peptide): 45 ± 7 µM; Activity % (DNMT3A/3L; 1µM compound, Exp1, Exp2, 1 µM): 107%; activity at 1 µM (DNMT3A/3L; 1µM compound, Exp1, Exp2, read-out: Activity %): 108%; activity at 10 µM (DNMT3A/3L; 10µM compound, Exp1, Exp2, read-out: Activity %): 100%; activity at 1 µM (DNMT3B/3L; [25]): 100%; Activity % (DNMT3B/3L): 90%; activity at 10 µM (DNMT3B/3L; [25]): 82%"
COc1cc(OC)cc(-c2noc(N3CCN(C)C4(CCN(c5ccccc5)CC4)C3)n2)c1 [MRK-740 -NC],–,–,–,–,–,–,–,–,–,–,–,–,–,–,–,–,–,–,–,–,"activity at 1 µM (DNMT3A/3L; 1µM compound, Exp1, Exp2): 100%; Activity % (DNMT3A/3L; 1µM compound, Exp1, Exp2, 1 µM): 91%; activity at 10 µM (DNMT3A/3L; 10µM compound, Exp1, Exp2): 96%; Activity % (DNMT3A/3L; 10µM compound, Exp1, Exp2, 10 µM): 87%; activity at 1 µM (DNMT3B/3L; Exp1, Exp2): 101%; activity at 10 µM (DNMT3B/3L; Exp1, Exp2): 99%; Activity % (DNMT3B/3L): 97%"

# — PMC6917776, “Discovery of a chemical probe for PRDM9” (Nature Communications, 2019)
